Test: xn = mol fraction of the nth substance listed
Conditions: 101 kPa, Liquid; for speed of sound: Sing-around technique in a fixed-path interferometer; for mass density: Vibrating tube method; for viscosity: Capillary tube (Ostwald / Ubbelohde) method

CC(C)CCCC(C)CCCC(C)CCCCC(C)CCCC(C)CCCC(C)C (stereo not drawn) [2,6,10,15,19,23-hexamethyltetracosane] + CCCCCCCCO
Conditions	mass density, 293.15 K [kg/m3]	mass density, 303.15 K [kg/m3]	mass density, 308.15 K [kg/m3]	speed of sound, 293.15 K [m/s]	speed of sound, 303.15 K [m/s]	speed of sound, 308.15 K [m/s]	viscosity, 298.15 K [mPa·s]	viscosity, 303.15 K [mPa·s]	viscosity, 308.15 K [mPa·s]
x2 = 0	805.122	801.912	798.709	1381.9	1364.1	1346.5	28.26	22.09	17.77
x2 = 0.0596	805.175	801.944	798.711	1379.9	1362.1	1344.1	24.18	19.21	15.49
x2 = 0.1053	805.299	802.053	798.798	1378.5	1360.4	1343.1	21.92	17.59	14.21
x2 = 0.1563	805.499	802.234	798.947	1376.9	1359.3	1341.5	20.12	16.25	13.14
x2 = 0.2092	805.773	802.479	799.184	1375.7	1357.8	1340.2	18.81	15.26	12.34
x2 = 0.2648	806.107	802.799	799.487	1374.2	1356.4	1338.7	17.88	14.5	11.73
x2 = 0.3404	806.637	803.312	799.989	1372.4	1354.5	1336.8	16.97	13.74	11.13
x2 = 0.398	807.105	803.775	800.439	1370.8	1352.9	1335.3	16.38	13.24	10.72
x2 = 0.4799	807.875	804.507	801.188	1368.6	1350.7	1333.1	15.42	12.45	10.12
x2 = 0.5974	809.279	805.92	802.536	1364.9	1347.1	1329.5	13.55	11.01	9.007
x2 = 0.6988	810.937	807.538	804.116	1361.3	1343.7	1326.1	11.51	9.441	7.786
x2 = 0.8079	813.477	810.008	806.567	1356.9	1339.5	1322.1	9.294	7.693	6.416
x2 = 0.8519	814.812	811.352	807.925	1355.2	1337.8	1320.4	8.533	7.093	5.937
x2 = 0.8942	816.384	812.92	809.463	1353.2	1335.9	1318.7	7.963	6.624	5.572
x2 = 0.9474	818.773	815.429	811.955	1350.6	1333.5	1316.4	7.526	6.288	5.31

CCCCCCCCCCCCCCCC [hexadecane] + CCCCCCCCO
Conditions	mass density, 293.15 K [kg/m3]	mass density, 303.15 K [kg/m3]	mass density, 308.15 K [kg/m3]	speed of sound, 293.15 K [m/s]	speed of sound, 303.15 K [m/s]	speed of sound, 308.15 K [m/s]	viscosity, 298.15 K [mPa·s]	viscosity, 303.15 K [mPa·s]	viscosity, 308.15 K [mPa·s]
x2 = 0	770.456	766.981	763.52	1338.6	1320	1301.7	3.041	2.706	2.409
x2 = 0.0461	771.581	768.09	764.586	1337	1318.4	1299.9	3.073	2.748	2.402
x2 = 0.1039	773.103	769.605	766.078	1335.7	1317.1	1298.7	3.089	2.741	2.399
x2 = 0.1547	774.574	771.039	767.495	1334.7	1316.1	1297.7	3.096	2.728	2.406
x2 = 0.1944	775.766	772.218	768.68	1334.3	1315.8	1297.4	3.107	2.728	2.419
x2 = 0.2685	778.197	774.63	771.077	1333.7	1315.3	1296.9	3.175	2.773	2.473
x2 = 0.3383	780.693	777.145	773.575	1333.5	1315.1	1296.8	3.29	2.881	2.561
x2 = 0.4099	783.479	779.937	776.383	1333.3	1314.9	1296.8	3.472	3.041	2.688
x2 = 0.4981	787.31	783.781	780.228	1333.5	1315.3	1297.2	3.768	3.307	2.896
x2 = 0.6017	792.441	788.911	785.346	1334.2	1316.2	1298.4	4.223	3.681	3.218
x2 = 0.6927	797.621	794.075	790.488	1335.8	1317.9	1300.2	4.714	4.086	3.554
x2 = 0.7963	804.426	800.846	797.284	1338.5	1320.9	1303.4	5.384	4.663	4.008
x2 = 0.8445	808.003	804.438	800.882	1340.1	1322.6	1305.3	5.757	4.992	4.251
x2 = 0.895	812.077	808.561	805.017	1342.2	1324.9	1307.8	6.219	5.383	4.54
x2 = 0.9529	817.221	813.871	810.331	1344.9	1327.9	1310.9	6.86	5.883	4.944

CCCCCCCCO [octan-1-ol] + CC(C)CCCC(C)CCCC(C)CCCCC(C)CCCC(C)CCCC(C)C
x1 = 1
Conditions	mass density [kg/m3]	speed of sound [m/s]	viscosity [mPa·s]
293.15 K	821.813	1348	–
298.15 K	–	–	7.506
303.15 K	818.796	1330.8	6.344
308.15 K	815.286	1314.1	5.363

CCCCCCCCO [octan-1-ol] + CCCCCCCCCCCCCCCC
x1 = 1
Conditions	mass density [kg/m3]	speed of sound [m/s]	viscosity [mPa·s]
293.15 K	821.813	1348	–
298.15 K	–	–	7.508
303.15 K	818.796	1330.8	6.344
308.15 K	815.286	1314.1	5.363

Reference: the NIST ThermoML archive (doi:10.1007/s10765-008-0491-0)
